In patent US20210024542A1 (Torcept Therapeutics, Inc., priority 2018, published 2021):

What was measured:
Format in all cases: cell-based, human
U2OS = assay: OncoPanel cell proliferation assay, U2OS
Procedure: (§1) Cells were seeded into 384-well plates and incubated in a humidified atmosphere of 5% CO2 at 37° C. Compounds were added the day following cell seeding. At the same time, a time zero untreated cell plate was generated. After a 3-day incubation period, cells were fixed and stained to allow fluorescence imaging of nuclei. Compounds (1 mM stock solutions) were serially diluted in half-log steps from the highest test concentration ([…]), and assayed over 10 concentrations with a maximum assay concentration of 0.1% DMSO. Automated fluorescence microscopy was carried out using a Molecular Devices ImageXpress Micro XL high-content imager, and images were collected with a 4× objective. 16-bit TIFF images were acquired and analyzed with MetaXpress 5.1.0.41 software.
(§2) Cell proliferation was measured by the fluorescence intensity of an incorporated nuclear dye. The output is referred to as the relative cell count, where the measured nuclear intensity is transformed to percent of control (POC) using the following formula: […]
(§3) Cellular response parameters were calculated using nonlinear regression to a sigmoidal single-site dose response model:
(§4) Where y is a response measured at concentration x, A and B are the lower and upper limits of the response, C is the concentration at the response midpoint (EC50), and D is the Hill Slope (Ref. 1).
GI50 is the concentration needed to reduce the observed growth by half (midway between the curve maximum and the time zero value). […] In rare instances, values <0 or >10 may be observed. […] Curve-fitting, calculations, and report generation was performed using a custom data reduction engine and MathIQ based software (AIM).

CRO-AP2 = assay: OncoPanel cell proliferation assay, CRO-AP2; conditions: CRO-AP2, scale 0-10
Procedure: as §1, with “Cells were grown in RPMI 1640, 10% FBS, 2 mM L-alanyl-L-glutamine, 1 mM Na pyruvate, or a special medium. Cells” for “Cells”
as §2, §3, §4
(§5) EC50 is the test compound concentration at the curve inflection point or half the effective response (parameter C of the fitted curve solution). GI50 is the concentration needed to reduce the observed growth by half (midway between the curve maximum and the time zero value). “Cell Count Activity Area” is an estimate of the integrated area above the curve (Barretina, et al. The Cancer Cell Line Encyclopedia enables predictive modelling of anticancer drug sensitivity. Nature 483: 603-607). […] In rare instances, values <0 or >10 may be observed. […] Curve-fitting, calculations, and report generation was performed using a custom data reduction engine and MathIQ based software (AIM).

U-87 MG = assay: OncoPanel cell proliferation assay, U-87 MG; conditions: for Cell Count Activity Area: scale 0-10
Procedure: as §1, with “Cells were grown in RPMI 1640, 10% FBS, 2 mM L-alanyl-L-glutamine, 1 mM Na pyruvate, or a special medium. Cells” for “Cells”
as §2, §3, §4, §5

[1] = Homo sapiens, 72 h, 3-day incubation, read-out: Cell Count IC50

| Structure (SMILES) | EC50 (U2OS; Homo sapiens, 72 h, 3-day incubation, read-out: Cell Count EC50) [nM] | IC50 (U2OS; [1]) [nM] | Cell Count Activity Area (U2OS; scale 0-10) | Cell Count Activity Area (CRO-AP2) | IC50 (U-87 MG; [1]) [nM] | Cell Count Activity Area (U-87 MG) |
| --- | --- | --- | --- | --- | --- | --- |
| CO[C@H]1C[C@@H]2CC[C@@H](C)[C@@](O)(O2)C(=O)C(=O)N2CCCC[C@H]2C(=O)O[C@H]([C@H](C)C[C@@H]2CC[C@@H](O)[C@H](OC)C2)CC(=O)[C@H](C)/C=C(\C)[C@@H](O)[C@@H](OC)C(=O)[C@H](C)C[C@H](C)/C=C/C=C/C=C/1C [Rapamycin, reference compound] | 0.65 | > 1000 | 3.04 | 6.22 | > 1000 | 3.79 |
| CN[C@@H]1C[C@H]2O[C@@](C)([C@@H]1OC)n1c3ccccc3c3c4c(c5c6ccccc6n2c5c31)C(=O)NC4 [Staurosporine, reference compound] |  |  |  | 3.99 |  | 3.25 |
